Patent US10195196B2, “1,4-disubstituted pyridazine analogs there of and methods for treating SMN-deficiency-related conditions” (NOVARTIS AG, priority 2012, dated 2019)

System: SMN protein
Test: cellular SMN ELISA (SMN protein elevation)
Type: cell-based
Settings: myoblast cell line from SMNdelta7 mouse model, 24 hours treatment; for SMN activity Fold: fold activation over DMSO control
Experimental: A cellular SMN ELISA was used to measure the effects of low molecular weight compounds on SMN protein elevation. Cells from a myoblast cell line derived from the SMNdelta7 mouse model (kind gift from Steve Burden, NYU) were seeded into a 384-well plate at a density of 3000 cells/well and treated with compounds for 24 hours. ELISA capture plates were prepared by coating 384-well plates (Immulon 4HBX) with 0.5 ug/mL of anti-SMN mAb (BD Science, Catalog number 610647) at 4° C. overnight. The plates were washed 5 times with 110 uL of PBS-Tween (0.05% Tween-20, PBST), blocked with 100 uL of 1% BSA in PBST for 2 hours and washed (5 times) with 100 uL of PBST. After 24 hours of compound treatment cells were lysed in a modified RIPA-buffer, on ice for 1 hour. 20 uL of lysate and 20 uL of 1% BSA were then added to the ELISA capture plates and incubated at 4° C. overnight. Plates were washed (5 times) with PBST and then incubated with 1:100 dilution of primary rabbit anti-SMN polyclonal antibody (Santa cruz, Catalog number SC-15320) at room temperature for 1 hour and subsequently washed (5 times) with 110 uL of PBST. This was followed by addition of 1:100 Goat anti-Rabbit IgG-HRP linked (Cell Signaling, Catalog number 7074) secondary antibody for 1 hour. Plates were then washed with PBST and incubated with 40 uL TMB substrate (Cell Signaling, Catalog number 7004L) at room temperature for 1-10 minutes with shaking. The reaction was stopped by addition of 40 uL of stop solution (Cell signaling, Catalog number 7002L) and absorption was measured at 450 nm. Data was reported as fold activation over DMSO control, and EC50.
ELISA assay condition 1: compound concentration range 20 nM-10 uM; ELISA assay condition 2: compound concentration 100 pM-10 uM.

[1] = ELISA condition 2: compound concentration 100 pM-10 uM
[2] = ELISA condition 1: compound concentration range 20 nM-10 uM

Question: How did the EC50 [1] turn out when `CN1C[C@@H]2CN(c3ccc(-c4ccc(-c5cn[nH]c5)cc4O)nn3)C[C@@H]2C1` [Example 43-3, 2-(6-((3aR,6aS)-5-methylhexahydropyrrolo[3,4-c]pyrrol-2(1H)-yl)pyridazin-3-yl)-5-(1H-pyrazol-4-yl)phenol] was run?
Answer: Its EC50 is 0.019 µM.

Question: And the “SMN activity Fold” value [1]?
Answer: Its value is 2.39 Fold.

Question: How did the EC50 [1] turn out when `Oc1cc(-n2cccn2)ccc1-c1ccc(N2C[C@H]3CNC[C@H]3C2)nn1` [Example 18-17, 2-(6-((3aR,6aS)-hexahydropyrrolo[3,4-c]pyrrol-2(1H)-yl)pyridazin-3-yl)-5-(1H-pyrazol-1-yl)phenol] was run?
Answer: Its EC50 is 0.158 µM.

Question: And the “SMN activity Fold” value [1]?
Answer: Its value is 2.85 Fold.

Question: What does the source list for `CN(c1ccc(-c2cccc(F)c2O)nn1)C1CC(C)(C)NC(C)(C)C1` [Example 3-8, 2-fluoro-6-{6-[methyl-(2,2,6,6-tetramethyl-piperidin-4-yl)-amino]-pyridazin-3-yl}-phenol]?
Answer: EC50 [1]: 1.58 µM; SMN activity Fold [1]: 2.72 Fold

Question: Which results are given for `CN(c1ccc(-c2ccc(-c3cnc4cnccn34)cc2O)nn1)C1CC(C)(C)NC(C)(C)C1` [Example 42-3, 5-(imidazo[1,2-a]pyrazin-3-yl)-2-(6-(methyl(2,2,6,6-tetramethylpiperidin-4-yl)amino)pyridazin-3-yl)phenol]?
Answer: EC50 [1]: 0.099 µM; SMN activity Fold [1]: 2.92 Fold

Question: With `COc1cc(-c2cn[nH]c2)cc(O)c1-c1ccc(N(C)C2CC(C)(C)NC(C)(C)C2)nn1` [Example 25-2, 3-methoxy-2-(6-(methyl(2,2,6,6-tetramethylpiperidin-4-yl)amino)pyridazin-3-yl)-5-(1H-pyrazol-4-yl)phenol] as the compound, how does the EC50 [1] read?
Answer: The EC50 was 0.008 µM.

Question: And the “SMN activity Fold” value [1]?
Answer: The value was 3.44 Fold.

Question: What does the source list for `CN(c1ccc(-c2ccc3cnccc3c2)nn1)C1CC(C)(C)NC(C)(C)C1` [Example 1-15, 6-(isoquinolin-6-yl)-N-methyl-N-(2,2,6,6-tetramethylpiperidin-4-yl)pyridazin-3-amine]?
Answer: EC50 [1]: 0.197 µM; SMN activity Fold [1]: 2.93 Fold

Question: With `COc1cc(-c2cccnc2)cc(O)c1-c1ccc(N(C)C2CC(C)(C)NC(C)(C)C2)nn1` [Example 26-3, 3-methoxy-2-(6-(methyl(2,2,6,6-tetramethylpiperidin-4-yl)amino)pyridazin-3-yl)-5-(pyridin-3-yl)phenol] as the compound, how does the EC50 [1] read?
Answer: The EC50 was 0.047 µM.

Question: What about the “SMN activity Fold” value [1] of the same compound?
Answer: Its value is 2.70 Fold.

Question: How did the EC50 [2] turn out when `CN1C(C)(C)CC(Nc2ccc(-c3ccc(-n4cccn4)cc3O)nn2)CC1(C)C` [Example 18-14, 2-[6-(1,2,2,6,6-pentamethyl-piperidin-4-ylamino)-pyridazin-3-yl]-5-pyrazol-1-yl-phenol] was run?
Answer: Its EC50 is 0.017 µM.

Question: What about the “SMN activity Fold” value [2] of the same compound?
Answer: Its value is 2.62 Fold.

Question: What does the source list for `Oc1cc(-n2cccn2)ccc1-c1ccc(N2CCC3(CC2)CNC3)nn1` [Example 18-9, 2-[6-(2,7-diaza-spiro[3.5]non-7-yl)-pyridazin-3-yl]-5-pyrazol-1-yl-phenol]?
Answer: EC50 [2]: 1.18 µM; SMN activity Fold [2]: 1.93 Fold

Question: What does the source list for `CN(c1ccc(-c2c(O)cc(-c3cc[nH]c(=O)c3)cc2F)nn1)C1CC(C)(C)NC(C)(C)C1` [Example 40-2, 4-(3-fluoro-5-hydroxy-4-(6-(methyl(2,2,6,6-tetramethylpiperidin-4-yl)amino)pyridazin-3-yl)phenyl)pyridin-2(1H)-one]?
Answer: EC50 [1]: 0.025 µM; SMN activity Fold [1]: 2.78 Fold

Question: How did the EC50 [2] turn out when `C[C@@H]1C[C@H](Oc2ccc(-c3ccc(-n4cccn4)cc3O)nn2)C[C@H](C)N1` [Example 17-2, 2-(6-(((2S,4R,6R)-2,6-Dimethylpiperidin-4-yl)oxy)pyridazin-3-yl)-5-(1H-pyrazol-1-yl)phenol] was run?
Answer: The EC50 was 0.07 µM.

Question: What about the “SMN activity Fold” value [2] of the same compound?
Answer: Its value is 2.62 Fold.

Question: `Cc1cnc(-c2cc(O)c(-c3ccc(N(C)C4CC(C)(C)NC(C)(C)C4)nn3)c(OCC3CC3)c2)o1` [Example 27-3, 3-(cyclopropylmethoxy)-2-(6-(methyl(2,2,6,6-tetramethylpiperidin-4-yl)amino)-pyridazin-3-yl)-5-(5-methyloxazol-2-yl)phenol] was tested. Which EC50 [1] did it give?
Answer: Its EC50 is 0.619 µM.

Question: What about the “SMN activity Fold” value [1] of the same compound?
Answer: Its value is 2.75 Fold.

Question: For `Cc1nc2cc(-c3ccc(N(C)C4CC(C)(C)NC(C)(C)C4)nn3)c(O)cc2[nH]1` [Example 28-1, 2-methyl-5-(6-(methyl(2,2,6,6-tetramethylpiperidin-4-yl)amino)pyridazin-3-yl)-1H-benzo[d]imidazol-6-ol], which EC50 [1] is on record?
Answer: Its EC50 is 0.475 µM.

Question: And the “SMN activity Fold” value [1]?
Answer: Its value is 3.41 Fold.

Question: What does the source list for `CN(c1ccc(-c2ccc(-c3cnc(O)c(C(F)(F)F)c3)cc2O)nn1)C1CC(C)(C)NC(C)(C)C1` [Example 41-5, 5-(3-hydroxy-4-(6-(methyl(2,2,6,6-tetramethylpiperidin-4-yl)amino)pyridazin-3-yl)phenyl)-3-(trifluoromethyl)pyridin-2-ol]?
Answer: EC50 [1]: 0.175 µM; SMN activity Fold [1]: 2.88 Fold

Question: Which results are given for `CN(c1ccc(-c2cc3ccc(O)cc3cc2O)nn1)C1CC(C)(C)NC(C)(C)C1` [Example 20-2, 3-(6-(methyl(2,2,6,6-tetramethylpiperidin-4-yl)amino)pyridazin-3-yl)naphthalene-2,7-diol]?
Answer: EC50 [1]: 0.004 µM; SMN activity Fold [1]: 2.79 Fold

Question: `Oc1cc(-n2cccn2)ccc1-c1ccc(N2CCCNCC2)nn1` [Example 18-6, 2-(6-[1,4]diazepan-1-yl-pyridazin-3-yl)-5-pyrazol-1-yl-phenol] was tested. Which EC50 [1] did it give?
Answer: Its EC50 is 0.268 µM.

Question: What about the “SMN activity Fold” value [1] of the same compound?
Answer: The value was 2.54 Fold.

Question: Which EC50 [2] does the source give for `CN(c1ccc(-c2cnc3ccccc3n2)nn1)C1CC(C)(C)NC(C)(C)C1` [Example 1-20, methyl-(6-quinoxalin-2-yl-pyridazin-3-yl)-(2,2,6,6-tetramethyl-piperidin-4-yl)-amine] here?
Answer: Its EC50 is 0.47 µM.

Question: What about the “SMN activity Fold” value [2] of the same compound?
Answer: The value was 3.04 Fold.

Question: With `COc1ccc2cc(-c3ccc(N(C)C4CC(C)(C)N(C)C(C)(C)C4)nn3)c(O)cc2c1` [Example 24-7, 7-methoxy-3-(6-(methyl(1,2,2,6,6-pentamethylpiperidin-4-yl)amino)pyridazin-3-yl)naphthalen-2-ol] as the compound, how does the EC50 [1] read?
Answer: Its EC50 is 0.031 µM.

Question: What about the “SMN activity Fold” value [1] of the same compound?
Answer: The value was 2.57 Fold.

Question: `CN(c1ccc(-c2ccc(-c3cn(C)cn3)cc2O)nn1)C1CC(C)(C)NC(C)(C)C1` [Example 42-6, 2-(6-(methyl(2,2,6,6-tetramethylpiperidin-4-yl)amino)pyridazin-3-yl)-5-(1-methyl-1H-imidazol-4-yl)phenol] was tested. Which EC50 [1] did it give?
Answer: Its EC50 is 0.066 µM.

Question: And the “SMN activity Fold” value [1]?
Answer: The value was 2.49 Fold.

Question: Which results are given for `COc1cc(-c2cnc3n2CCCC3)cc(O)c1-c1ccc(N(C)C2CC(C)(C)NC(C)(C)C2)nn1` [Example 26-2, 3-methoxy-2-(6-(methyl(2,2,6,6-tetramethylpiperidin-4-yl)amino)pyridazin-3-yl)-5-(5,6,7,8-tetrahydroimidazo[1,2-a]pyridin-3-yl)phenol]?
Answer: EC50 [1]: 0.097 µM; SMN activity Fold [1]: 2.61 Fold

Question: How did the EC50 [1] turn out when `CN(c1ccc(-c2ccc(-n3cc(C(N)=O)cn3)cc2O)nn1)C1CC(C)(C)NC(C)(C)C1` [Example 42-11, 1-(3-hydroxy-4-(6-(methyl(2,2,6,6-tetramethylpiperidin-4-yl)amino)pyridazin-3-yl)phenyl)-1H-pyrazole-4-carboxamide] was run?
Answer: Its EC50 is 0.239 µM.

Question: And the “SMN activity Fold” value [1]?
Answer: The value was 3.37 Fold.

Question: Which EC50 [1] does the source give for `CC1(C)CC(Oc2ccc(-c3ccc4cnccc4c3)nn2)CC(C)(C)N1` [Example 1-11, 6-(6-((2,2,6,6-tetramethylpiperidin-4-yl)oxy)pyridazin-3-yl)isoquinoline] here?
Answer: The EC50 was 3.9 µM.

Question: What about the “SMN activity Fold” value [1] of the same compound?
Answer: The value was 2.67 Fold.

Question: With `COc1cc(-c2cnn(C3CCCC3)c2)cc(O)c1-c1ccc(N(C)C2CC(C)(C)NC(C)(C)C2)nn1` [Example 26-4, 5-(1-cyclopentyl-1H-pyrazol-4-yl)-3-methoxy-2-(6-(methyl(2,2,6,6-tetramethylpiperidin-4-yl)amino)pyridazin-3-yl)phenol] as the compound, how does the EC50 [1] read?
Answer: Its EC50 is 0.649 µM.

Question: And the “SMN activity Fold” value [1]?
Answer: The value was 2.22 Fold.

Question: Which EC50 [1] does the source give for `CN(c1ccc(-c2ccc3ccnc(OCc4ccccc4)c3c2)nn1)C1CC(C)(C)NC(C)(C)C1` [Example 39-2, 6-(1-(benzyloxy)isoquinolin-7-yl)-N-methyl-N-(2,2,6,6-tetramethylpiperidin-4-yl)pyridazin-3-amine] here?
Answer: Its EC50 is 0.408 µM.

Question: What about the “SMN activity Fold” value [1] of the same compound?
Answer: The value was 3.04 Fold.

Question: For `CC1(C)CC(Nc2ccc(-c3ccc(-n4cccn4)cc3O)nn2)CC(C)(C)N1` [Example 30-1, 5-(1H-pyrazol-1-yl)-2-(6-((2,2,6,6-tetramethylpiperidin-4-yl)amino)pyridazin-3-yl)phenol], which EC50 [1] is on record?
Answer: The EC50 was 0.008 µM.

Question: And the “SMN activity Fold” value [1]?
Answer: Its value is 2.99 Fold.

Question: What does the source list for `CC1(C)CC(Nc2ccc(-c3ccc4scnc4c3)nn2)CC(C)(C)N1` [Example 2-2, 6-(benzo[d]thiazol-5-yl)-N-(2,2,6,6-tetramethyl-piperidin-4-yl)pyridazin-3-amine]?
Answer: EC50 [2]: 1.03 µM; SMN activity Fold [2]: 2.37 Fold

Question: With `CC1CC(Oc2ccc(-c3ccc(-n4cccn4)cc3O)nn2)CCN1` (single isomer, unassigned) [Example 17-6] as the compound, how does the EC50 [1] read?
Answer: The EC50 was 0.443 µM.

Question: And the “SMN activity Fold” value [1]?
Answer: The value was 2.58 Fold.
